Laboratory results taken from patent EP4744680A1, “TARGETED CHEMICAL DRUG AND PREPARATION METHOD THEREFOR, PHARMACEUTICAL COMPOSITION, AND USE OF TARGETED CHEMICAL DRUG” (Bai Yao Zhi Da (Beijing) Nanobio Technology Co., Ltd., priority 2023, dated 2025).

Tests used:
N87 gastric cancer = test: In vivo antitumor efficacy in an N87 gastric cancer mouse model (drug of Example 1); set-up: species or system mouse (BALB/c nude); details: 0.06mg i.v. (tail vein) twice per week for 5 weeks
Experimental: (1)..Cell culture: Tumor cells were cultured in RPMI-1640 medium supplemented with heat-inactivated 10% fetal bovine serum, 100 U/mL penicillin, 100 µg/mL streptomycin, and 2 mM L-glutamine, in a humidified incubator at 37 °C with 5% CO2.Subculture was performed every 3-4 days after confluence; tumor cells in logarithmic growth phase were used for in vivo inoculation. (2).Tumor cell inoculation and grouping: Tumor cells (1 × 10^7) resuspended in PBS: Matrigel were inoculated subcutaneously into the right flank of each mouse.When tumors reached approximately 80-100 mm^3, animals were randomized into groups for dosing. […] (3).Dosing Regimen: Table 22
The dosing volume is 200 µL per 20 g mouse, with the administered dose calculated on a body-weight basis; the observation period is 60 days, adjustable according to the condition of the animals and tumor status.
• a. Tumor volume: Measured twice weekly using vernier calipers. The long and short diameters were recorded; tumor volume was calculated as: Volume = 0.5 × length × (width)^2. • b. Post-administration reactions in animals: At each tumor-measurement time point, body weight was recorded.Changes in body weight relative to dosing time were documented.Survival and general health (e.g., activity, feeding) were monitored throughout the dosing period. • c. Tumor excision, weighing, and photography: at the end of the study, mice were euthanized; tumors were excised, photographed and collected; specimens were fixed or snap-frozen as required. • a) Photograph each animal post-euthanasia with tumor in situ; • b) Dissect and weigh each subcutaneous tumor; • c) Arrange all tumors on a white board according to group codes and photograph; then bisect longitudinally, realign by group code, and photograph again. • d) Tumors were snap-frozen or formalin-fixed per requirements. • d.
• a. […] Inhibition Rate of Tumor Weight (IRTW, %) IRTW (%) = (Wcontrol group−Wtreatment group)/Wcontrol group × 100, [formula] where W is tumor weight.IRTW > 60% is considered effective.

HepG2 liver cancer = test: In-vivo efficacy study in the HepG2 mouse liver cancer model (drug of Example 6); set-up: species or system mouse (BALB/cAnSlacNifdc-nu); details: for Tumor growth inhibition rate (TGI, %) at different days post-inoculation: 6 mg/kg (0.12 mg/mouse) i.v. (tail vein) once weekly
From the text: • Species/strain: BALB/cAnSlacNifdc-nu • Sex: Male • Body weight: 16-18 g
1).Inoculation and grouping: For the HepG2 mouse liver cancer model, male BALB/cAnSlacNifdc-nu nude mice, weighing 16.0-18.0 g, were used.Under aseptic conditions, HepG2 tumor tissue was excised and cut into 2.0mm×2.0mm×2.0mm tumor blocks, which were uniformly implanted subcutaneously into the left axillary dorsal region of nude mice. The day of implantation was designated as Day 0 (D0).When the tumor volume reached approximately 250.0 mm^3 (D7), animals were randomized by tumor volume into three groups: A (control group), B, and C (treatment groups), with 8 animals per group.On the day of randomization, all animals began intravenous (tail-vein) dosing once weekly for a total of 3 administrations. 2.Dosing regimen: Table 37
(§1) Tumor size is measured twice per week using a vernier caliper. The long diameter (a) and short diameter (b) are recorded. Tumor volume is calculated as: V=0.5×a×b^2.
(§2) RTV = Vt /V0 , [formula] where V0 is the tumor volume at grouping/first dosing (D0), and Vt is the tumor volume at each measurement time point.
6).Tumor weight: At the end of the study (D23), the remaining animals were euthanized by cervical dislocation. Tumors were excised, weighed, and photographed.

A549 lung carcinoma = test: In-vivo efficacy study in the A549 mouse lung carcinoma model (drug of Example 3); set-up: species or system mouse (BALB/c-nu)
Experimental: • Species/strain: BALB/c nude (BALB/c-nu) • Age: 6-7 weeks • Sex: Male • Body weight: 16-18 g
The day of implantation was designated as Day 0 (D0).When the tumor volume reached approximately 100.0 mm^3 (D5), animals with poor tumor take were excluded, the remaining animals were randomized by tumor volume, and dosing commenced on the day of randomization. 2).Dosing regimen: Table 31
as §1, §2

U251-RFP human glioma = test: In-vivo efficacy study in the U251-RFP human glioma orthotopic mouse model (drug of Example 9); set-up: species or system mouse (BALB/c nude); details: 6mg/Kg i.v. (tail vein) twice weekly, 8 administrations
From the text: 2.Dosing regimen: Table 41

[1] = end of the study (D32 or D25), targeted drug: high- and medium-dose

COc1cccc2c1C(=O)c1c(O)c3c(c(O)c1C2=O)C[C@@](O)(C(=O)CO)C[C@@H]3O[C@H]1C[C@H](N)[C@@H](O)[C@H](C)O1 [Epirubicin drug substance (API), Epirubicin]
Tumor Growth Inhibition Rate at Different Days Post-Inoculation (%) (N87 gastric cancer; Day 9): 8.44% | Tumor Growth Inhibition Rate at Different Days Post-Inoculation (%) (N87 gastric cancer; Day 13): 0.40% | Tumor Growth Inhibition Rate at Different Days Post-Inoculation (%) (N87 gastric cancer; Day 17): 6.68% | Tumor Growth Inhibition Rate at Different Days Post-Inoculation (%) (N87 gastric cancer; Day 20): 7.83% | Tumor Growth Inhibition Rate at Different Days Post-Inoculation (%) (N87 gastric cancer; Day 23): 12.46% | Tumor Growth Inhibition Rate at Different Days Post-Inoculation (%) (N87 gastric cancer; Day 27): 23.34% | Tumor Growth Inhibition Rate at Different Days Post-Inoculation (%) (N87 gastric cancer; Day 30): 25.87% | Tumor Growth Inhibition Rate at Different Days Post-Inoculation (%) (N87 gastric cancer; Day 34): 31.16% | Tumor Growth Inhibition Rate at Different Days Post-Inoculation (%) (N87 gastric cancer; Day 37): 36.26% | Tumor weight inhibition rate, IRTW (%) (HepG2 liver cancer; 23 days post-HepG2 inoculation, 6 mg/kg (0.12 mg/mouse) i.v. once weekly, 3 administrations): 25.20% | Tumor growth inhibition rate (TGI, %) at different days post-inoculation (HepG2 liver cancer; Day 10, 3 administrations): 16.33% | Tumor growth inhibition rate (TGI, %) at different days post-inoculation (HepG2 liver cancer; Day 14, 3 administrations): 36.16% | Tumor growth inhibition rate (TGI, %) at different days post-inoculation (HepG2 liver cancer; Day 21, 3 administrations): 24.72% | Tumor growth inhibition rate (TGI, %) at different days post-inoculation (HepG2 liver cancer; Day 23, 3 administrations): 22.08% | tumor growth inhibition rate (calculated based on tumor weight and tumor volume) (HepG2 liver cancer; end of the study (D23), intravenous injection): less than 60% | Tumor growth inhibition rate (TGI, %) at different days post-inoculation (A549 lung carcinoma; Day 8, 0.08mg i.v. (tail vein) twice weekly for 5 weeks): 19.90% | Tumor growth inhibition rate (TGI, %) at different days post-inoculation (A549 lung carcinoma; Day 8, 0.12mg i.v. (tail vein) twice weekly for 5 weeks): 17.42% | Tumor growth inhibition rate (TGI, %) at different days post-inoculation (A549 lung carcinoma; Day 8, 0.14mg i.v. (tail vein) twice weekly for 5 weeks): 17.47% | Tumor growth inhibition rate (TGI, %) at different days post-inoculation (A549 lung carcinoma; Day 11, 0.08mg i.v. (tail vein) twice weekly for 5 weeks): 17.02% | Tumor growth inhibition rate (TGI, %) at different days post-inoculation (A549 lung carcinoma; Day 11, 0.12mg i.v. (tail vein) twice weekly for 5 weeks): 15.55% | Tumor growth inhibition rate (TGI, %) at different days post-inoculation (A549 lung carcinoma; Day 11, 0.14mg i.v. (tail vein) twice weekly for 5 weeks): 28.43% | Tumor growth inhibition rate (TGI, %) at different days post-inoculation (A549 lung carcinoma; Day 14, 0.08mg i.v. (tail vein) twice weekly for 5 weeks): -12.27% | Tumor growth inhibition rate (TGI, %) at different days post-inoculation (A549 lung carcinoma; Day 14, 0.12mg i.v. (tail vein) twice weekly for 5 weeks): -4.64% | Tumor growth inhibition rate (TGI, %) at different days post-inoculation (A549 lung carcinoma; Day 14, 0.14mg i.v. (tail vein) twice weekly for 5 weeks): 6.41% | Tumor growth inhibition rate (TGI, %) at different days post-inoculation (A549 lung carcinoma; Day 17, 0.08mg i.v. (tail vein) twice weekly for 5 weeks): 10.74% | Tumor growth inhibition rate (TGI, %) at different days post-inoculation (A549 lung carcinoma; Day 17, 0.12mg i.v. (tail vein) twice weekly for 5 weeks): 28.37% | Tumor growth inhibition rate (TGI, %) at different days post-inoculation (A549 lung carcinoma; Day 17, 0.14mg i.v. (tail vein) twice weekly for 5 weeks): 31.81% | Tumor growth inhibition rate (TGI, %) at different days post-inoculation (A549 lung carcinoma; Day 22, 0.08mg i.v. (tail vein) twice weekly for 5 weeks): 10.11% | Tumor growth inhibition rate (TGI, %) at different days post-inoculation (A549 lung carcinoma; Day 22, 0.12mg i.v. (tail vein) twice weekly for 5 weeks): 8.93% | Tumor growth inhibition rate (TGI, %) at different days post-inoculation (A549 lung carcinoma; Day 22, 0.14mg i.v. (tail vein) twice weekly for 5 weeks): 12.37% | Tumor growth inhibition rate (TGI, %) at different days post-inoculation (A549 lung carcinoma; Day 25, 0.12mg i.v. (tail vein) twice weekly for 5 weeks): 41.13% | Tumor growth inhibition rate (TGI, %) at different days post-inoculation (A549 lung carcinoma; Day 25, 0.14mg i.v. (tail vein) twice weekly for 5 weeks): 44.37% | Tumor growth inhibition rate (TGI, %) at different days post-inoculation (A549 lung carcinoma; Day 29, 0.08mg i.v. (tail vein) twice weekly for 5 weeks): 2.07% | Tumor growth inhibition rate (TGI, %) at different days post-inoculation (A549 lung carcinoma; Day 29, 0.12mg i.v. (tail vein) twice weekly for 5 weeks): 34.27% | Tumor growth inhibition rate (TGI, %) at different days post-inoculation (A549 lung carcinoma; Day 29, 0.14mg i.v. (tail vein) twice weekly for 5 weeks): 31.80% | Tumor growth inhibition rate (TGI, %) at different days post-inoculation (A549 lung carcinoma; Day 32, 0.08mg i.v. (tail vein) twice weekly for 5 weeks): 13.19% | Tumor growth inhibition rate (TGI, %) at different days post-inoculation (A549 lung carcinoma; Day 32, 0.12mg i.v. (tail vein) twice weekly for 5 weeks): 33.27% | Tumor growth inhibition rate (TGI, %) at different days post-inoculation (A549 lung carcinoma; Day 32, 0.14mg i.v. (tail vein) twice weekly for 5 weeks): 24.63% | T/C (A549 lung carcinoma; [1]): greater than 40% | tumor growth inhibition rate (calculated on the basis of tumor weight and tumor volume) (A549 lung carcinoma; [1]): less than 60% | Tumor growth inhibition rate (TGI, %) at different days post-inoculation (U251-RFP human glioma; Day 6): 35.8% | Tumor growth inhibition rate (TGI, %) at different days post-inoculation (U251-RFP human glioma; Day 10): -3.9% | Tumor growth inhibition rate (TGI, %) at different days post-inoculation (U251-RFP human glioma; Day 13): -7.1% | Tumor growth inhibition rate (TGI, %) at different days post-inoculation (U251-RFP human glioma; Day 17): 19.4%
